Here are results for 27 molecules from patent US10758534B2 (Vertex Pharmaceuticals Incorporated, priority 2014, dated 2020).

SMILES strings stand for the structures.

The target in this experiment is T1, F508del (Homo sapiens, UniProt P13569, DEL508-508).
T1 construct: expressed in transfected cells
T1 sequence (P13569 with tags, fused parts or gaps DEL508-508): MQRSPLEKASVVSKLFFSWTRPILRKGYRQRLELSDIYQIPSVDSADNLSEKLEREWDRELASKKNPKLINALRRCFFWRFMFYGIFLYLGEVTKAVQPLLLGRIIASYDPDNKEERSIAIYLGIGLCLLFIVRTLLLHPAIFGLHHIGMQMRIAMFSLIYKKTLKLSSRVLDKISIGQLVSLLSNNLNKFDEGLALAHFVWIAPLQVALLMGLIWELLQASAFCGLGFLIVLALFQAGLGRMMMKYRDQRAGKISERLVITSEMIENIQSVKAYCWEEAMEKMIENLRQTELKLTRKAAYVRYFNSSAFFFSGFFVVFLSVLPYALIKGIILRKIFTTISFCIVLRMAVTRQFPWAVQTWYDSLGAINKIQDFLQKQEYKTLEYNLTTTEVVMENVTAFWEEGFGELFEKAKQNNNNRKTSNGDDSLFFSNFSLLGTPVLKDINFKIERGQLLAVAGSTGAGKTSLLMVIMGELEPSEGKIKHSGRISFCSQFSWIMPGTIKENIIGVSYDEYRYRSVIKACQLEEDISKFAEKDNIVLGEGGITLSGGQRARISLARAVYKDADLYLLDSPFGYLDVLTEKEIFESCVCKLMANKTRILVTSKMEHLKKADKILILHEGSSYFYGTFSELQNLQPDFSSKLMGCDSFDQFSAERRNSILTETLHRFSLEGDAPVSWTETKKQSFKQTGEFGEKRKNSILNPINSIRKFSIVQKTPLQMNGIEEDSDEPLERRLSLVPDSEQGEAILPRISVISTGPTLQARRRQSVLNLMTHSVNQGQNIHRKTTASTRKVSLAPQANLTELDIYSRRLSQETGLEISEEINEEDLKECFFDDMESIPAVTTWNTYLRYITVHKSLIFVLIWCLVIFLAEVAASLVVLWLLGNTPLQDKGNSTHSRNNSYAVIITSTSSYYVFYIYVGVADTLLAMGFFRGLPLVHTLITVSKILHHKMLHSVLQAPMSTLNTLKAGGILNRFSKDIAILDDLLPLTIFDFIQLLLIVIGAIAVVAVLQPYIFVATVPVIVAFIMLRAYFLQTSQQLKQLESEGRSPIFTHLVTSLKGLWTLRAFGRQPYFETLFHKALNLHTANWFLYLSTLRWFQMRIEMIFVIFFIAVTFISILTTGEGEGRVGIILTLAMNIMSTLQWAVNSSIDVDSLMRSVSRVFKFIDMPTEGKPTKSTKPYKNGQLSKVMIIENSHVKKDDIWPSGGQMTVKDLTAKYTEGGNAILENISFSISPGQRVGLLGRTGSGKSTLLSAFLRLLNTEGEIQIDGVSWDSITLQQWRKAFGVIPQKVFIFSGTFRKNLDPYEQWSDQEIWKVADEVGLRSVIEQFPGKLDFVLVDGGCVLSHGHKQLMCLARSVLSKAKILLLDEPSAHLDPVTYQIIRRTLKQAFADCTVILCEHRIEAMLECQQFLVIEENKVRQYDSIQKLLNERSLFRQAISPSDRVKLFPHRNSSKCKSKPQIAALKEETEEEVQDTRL
In words: Protocol 1: membrane potential optical assay (FLIPR III, voltage sensing dye), identification of potentiator compounds. Type of experiment: cell-based. The note with it: Table 3, compounds of Table 1. In short, it runs like this: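 NIH3T3 F508del cells, 27° C × 24 hrs; compound/DMSO pretreat → redistribution dye load → single forskolin addition with Cl⁻ gradient (gluconate-substituted bath, HEPES pH 7.4). FLIPR III membrane-potential fluorescence read.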
Turning to `CC(C)Oc1ccc(-c2ccc(C(=O)NS(=O)(=O)c3cccc(N)n3)c(N3CCC(c4ccccc4)C3)n2)cn1` (stereo not drawn) [Compound 1112, N-[(6-amino-2-pyridyl)sulfonyl]-6-(6-isopropoxy-3-pyridyl)-2-(3-phenylpyrrolidin-1-yl)pyridine-3-carboxamide], the EC30 entry is “++ (“++” means between 3 uM and 10 uM)”.
For the molecule `CCOc1ccc(-c2ccc(C(=O)NS(=O)(=O)c3cccc(N)n3)c(Oc3c(C)cc(C)cc3C)n2)cc1` [Compound 1337, N-[(6-amino-2-pyridyl)sulfonyl]-6-(4-ethoxyphenyl)-2-(2,4,6-trimethylphenoxy)pyridine-3-carboxamide], the EC30 result is listed as “+++ (“+++” means <3 uM)”.
As for `C[C@@H]1CN(c2nc(-c3cc(O)cc(F)c3)ccc2C(=O)NS(=O)(=O)c2cccc(N)n2)C(C)(C)C1` [Compound 1636, N-[(6-amino-2-pyridyl)sulfonyl]-6-(3-fluoro-5-hydroxy-phenyl)-2-[(4S)-2,2,4-trimethylpyrrolidin-1-yl]pyridine-3-carboxamide], the EC30 result was “++ (“++” means between 3 uM and 10 uM)”.
As for `CCOc1cccc(-c2ccc(C(=O)NS(=O)(=O)c3cccc(N)n3)c(Oc3c(C)cc(C)cc3C)n2)n1` [Compound 1133, N-[(6-amino-2-pyridyl)sulfonyl]-6-(6-ethoxy-2-pyridyl)-2-(2,4,6-trimethylphenoxy)pyridine-3-carboxamide], the EC30 entry is reported as “+++ (“+++” means <3 uM)”.
Consider `CC1CN(c2nc(C(C)(C)C)c(C3=CC(=O)CC(C)(C)C3)cc2C(=O)NS(=O)(=O)c2cccc(N)n2)C(C)(C)C1` (stereo not drawn) [Compound 1405, N-[(6-amino-2-pyridyl)sulfonyl]-6-tert-butyl-5-(5,5-dimethyl-3-oxo-cyclohexen-1-yl)-2-(2,2,4-trimethylpyrrolidin-1-yl)pyridine-3-carboxamide], for which the EC30 result was “+++ (“+++” means <3 uM)”.
Regarding `CC(C)COc1cc(F)cc(-c2ccc(C(=O)NS(=O)(=O)c3cccc(N)n3)c(N3[C@@H](C)CCC3(C)C)n2)c1` [Compound 1241, N-[(6-amino-2-pyridyl)sulfonyl]-6-(3-fluoro-5-isobutoxy-phenyl)-2-[(5S)-2,2,5-trimethylpyrrolidin-1-yl]pyridine-3-carboxamide], the EC30 entry was “+++ (“+++” means <3 uM)”.
With `CC(C)COc1cc(F)cc(-c2ccc(C(=O)NS(=O)(=O)c3ccn[nH]3)c(N3CC(C)OC(C)C3)n2)c1` (stereo not drawn) [Compound 1119, 2-(2,6-dimethylmorpholin-4-yl)-6-(3-fluoro-5-isobutoxy-phenyl)-N-(1H-pyrazol-5-ylsulfonyl)pyridine-3-carboxamide], the EC30 result is “++ (“++” means between 3 uM and 10 uM)”.
In the case of `C[C@@H]1CN(c2nc(-c3cc(O)cc(F)c3)ccc2C(=O)NS(=O)(=O)c2ccccc2)C(C)(C)C1` [Compound 1538, N-(benzenesulfonyl)-6-(3-fluoro-5-hydroxy-phenyl)-2-[(4S)-2,2,4-trimethylpyrrolidin-1-yl]pyridine-3-carboxamide], the EC30 entry is on record as “+ (“+” means greater than 10 uM)”.
The value for `Cc1cc(C)c(Oc2nc(-c3cccc(Cl)c3)ccc2C(=O)NS(=O)(=O)c2cccc(N)n2)c(C)c1` [Compound 1295, N-[(6-amino-2-pyridyl)sulfonyl]-6-(3-chlorophenyl)-2-(2,4,6-trimethylphenoxy)pyridine-3-carboxamide] was “+++ (“+++” means <3 uM)”; that for `CC(C)COc1cc(F)cc(-c2ccc(C(=O)NS(=O)(=O)N3CCCC(N(C)C)C3)c(N3CC(C)CC3(C)C)n2)c1` (stereo not drawn) [Compound 1414, N—[[3-(dimethylamino)-1-piperidyl]sulfonyl]-6-(3-fluoro-5-isobutoxy-phenyl)-2-(2,2,4-trimethylpyrrolidin-1-yl)pyridine-3-carboxamide] was “+++ (“+++” means <3 uM)”; that for `COc1ccc(C)cc1-c1ccc(C(=O)NS(=O)(=O)c2cccc(N)n2)c(Oc2c(C)cc(C)cc2C)n1` [Compound 1320, N-[(6-amino-2-pyridyl)sulfonyl]-6-(2-methoxy-5-methyl-phenyl)-2-(2,4,6-trimethylphenoxy)pyridine-3-carboxamide] was “+++ (“+++” means <3 uM)”.
As for `COCC1CCN(c2nc(-c3cc(F)cc(OCC(C)C)c3)ccc2C(=O)NS(=O)(=O)c2ccn[nH]2)CC1` [Compound 975, 6-(3-fluoro-5-isobutoxy-phenyl)-2-[4-(methoxymethyl)-1-piperidyl]-N-(1H-pyrazol-5-ylsulfony)pyridine-3-carboxamide], the EC30 entry is “++ (“++” means between 3 uM and 10 uM)”.
Consider `Cc1cc(C)c(Oc2nc(C3=CCCC3)ccc2C(=O)NS(=O)(=O)c2cccc(N)n2)c(C)c1` [Compound 1330, N-[(6-amino-2-pyridyl)sulfonyl]-6-(cyclopenten-1-yl)-2-(2,4,6-trimethylphenoxy)pyridine-3-carboxamide], for which the EC30 result is “+++ (“+++” means <3 uM)”.
As for `COCC1CCN(c2nc(C(C)(C)C)ccc2C(=O)NS(=O)(=O)c2cccc(N)n2)CC1` [Compound 986, N-[(6-amino-2-pyridyl)sulfonyl]-6-tert-butyl-2-[4-(methoxymethyl)-1-piperidyl]pyridine-3-carboxamide], the entry is “++ (“++” means between 3 uM and 10 uM)”; as for `CC(C)COc1cc(F)cc(-c2ccc(C(=O)NS(=O)(=O)c3cccc(N)n3)c(OC3C(C)CCCC3C)n2)c1` (stereo not drawn) [Compound 978, N-[(6-amino-2-pyridyl)sulfonyl]-2-(2,6-dimethylcyclohexoxy)-6-(3-fluoro-5-isobutoxy-phenyl)pyridine-3-carboxamide], “+++ (“+++” means <3 uM)”; as for `CC(C)COc1cc(F)cc(-c2ccc(C(=O)NS(=O)(=O)c3cccc(N)n3)c(OC3CCCC3)n2)c1` [Compound 1451, N-[(6-amino-2-pyridyl)sulfonyl]-2-(cyclopentoxy)-6-(3-fluoro-5-isobutoxy-phenyl)pyridine-3-carboxamide], “+++ (“+++” means <3 uM)”.
For `CC1CN(c2nc(C(C)(C)C)c(C3=CCN(C)CC3)cc2C(=O)NS(=O)(=O)c2cccc(N)n2)C(C)(C)C1` (stereo not drawn) [Compound 1382, N-[(6-amino-2-pyridyl)sulfonyl]-6-tert-butyl-5-(1-methyl-3,6-dihydro-2H-pyridin-4-yl)-2-(2,2,4-trimethylpyrrolidin-1-yl)pyridine-3-carboxamide], the EC30 result is recorded as “+ (“+” means greater than 10 uM)”.
The value for `CC(C)(C)c1ccc(C(=O)NS(=O)(=O)c2cccc(N)c2)c(-c2ccc(F)c(F)c2)n1` [Compound 1217, N-(3-aminophenyl)sulfonyl-6-tert-butyl-2-(3,4-difluorophenyl)pyridine-3-carboxamide] was “+ (“+” means greater than 10 uM)”.
The value for `C[C@@H]1CN(c2nc(-c3cccc4ccccc34)ccc2C(=O)NS(=O)(=O)c2cccnc2N)C(C)(C)C1` [Compound 1857, N-[(2-amino-3-pyridyl)sulfonyl]-6-(1-naphthyl)-2-[(4S)-2,2,4-trimethylpyrrolidin-1-yl]pyridine-3-carboxamide] was “+++ (“+++” means <3 uM)”.
Turning to `CC1CN(c2ncccc2C(=O)NS(=O)(=O)c2cccc(Nc3ccc4c(c3)CCC4)n2)C(C)(C)C1` (stereo not drawn) [Compound 1909, N—[[6-(indan-5-ylamino)-2-pyridyl]sulfonyl]-2-(2,2,4-trimethylpyrrolidin-1-yl)pyridine-3-carboxamide], the EC30 result is “+++ (“+++” means <3 uM)”.
With `CC(C)COc1ccc(-c2ccc(C(=O)NS(=O)(=O)c3cccc(N)n3)c(N3CCC(C)CC3)n2)cc1` [Compound 1094, N-[(6-amino-2-pyridyl)sulfonyl]-6-(4-isobutoxyphenyl)-2-(4-methyl-1-piperidyl)pyridine-3-carboxamide], the EC30 entry is “+++ (“+++” means <3 uM)”.
As for `CC(C)COc1cc(F)cc(-c2ccc(C(=O)NS(=O)(=O)c3cccc(N)n3)c(OC(C)C3CC3)n2)c1` (stereo not drawn) [Compound 1165, N-[(6-amino-2-pyridyl)sulfonyl]-2-(1-cyclopropylethoxy)-6-(3-fluoro-5-isobutoxy-phenyl)pyridine-3-carboxamide], the entry is “++ (“++” means between 3 uM and 10 uM)”; as for `CC(C)COc1cc(F)cc(-c2ccc(C(=O)NS(=O)(=O)c3cccc(N)n3)c(OCCCc3ccccc3)n2)c1` [Compound 1694, N-[(6-amino-2-pyridyl)sulfonyl]-6-(3-fluoro-5-isobutoxy-phenyl)-2-(3-phenylpropoxy)pyridine-3-carboxamide], “+++ (“+++” means <3 uM)”; as for `CCOc1cccc(-c2ccc(C(=O)NS(=O)(=O)c3cccnc3N)c(N3C[C@@H](C)CC3(C)C)n2)c1F` [Compound 1847, N-[(2-amino-3-pyridyl)sulfonyl]-6-(3-ethoxy-2-fluoro-phenyl)-2-[(4S)-2,2,4-trimethylpyrrolidin-1-yl]pyridine-3-carboxamide], “+++ (“+++” means <3 uM)”.
`CC(C)COc1cc(F)cc(-c2ccc(C(=O)NS(=O)(=O)c3cccc(N)n3)c(N3CC(C)CC34CC4)n2)c1` (stereo not drawn) [Compound 1754, N-[(6-amino-2-pyridyl)sulfonyl]-6-(3-fluoro-5-isobutoxy-phenyl)-2-(5-methyl-7-azaspiro[2.4]heptan-7-yl)pyridine-3-carboxamide]: the EC30 entry is recorded as “+++ (“+++” means <3 uM)”.
As to `CCOc1ccc(-c2ccc(C(=O)NS(=O)(=O)c3cccnc3N)c(N3C[C@@H](C)CC3(C)C)n2)cc1` [Compound 1945, N-[(2-amino-3-pyridyl)sulfonyl]-6-(4-ethoxyphenyl)-2-[(4S)-2,2,4-trimethylpyrrolidin-1-yl]pyridine-3-carboxamide], the EC30 entry is on record as “+++ (“+++” means <3 uM)”.
Consider `CC(C)Oc1ccc(-c2ccc(C(=O)NS(=O)(=O)c3cccc(N)n3)c(N3CCC(C)(C)CC3)n2)cn1` [Compound 1134, N-[(6-amino-2-pyridyl)sulfonyl]-2-(4,4-dimethyl-1-piperidyl)-6-(6-isopropoxy-3-pyridyl)pyridine-3-carboxamide], for which the EC30 result was “+++ (“+++” means <3 uM)”.
